Results: publication PMC6199744, “Development of Chemical Proteomics for the Folateome and Analysis of the Kinetoplastid Folateome” (ACS Infectious Diseases, 2018)
Read-outs that look alike come from different tables or passages of the source.

Tests used:
Assay type in all cases: binding
[1] = target: T1, HeLa cell extract proteins (Homo sapiens, UniProt O75396); settings: protein SEC22B; HeLa
T1 construct: endogenous in cells; host or cells: HeLa cell extract
T1 sequence (O75396 1-215): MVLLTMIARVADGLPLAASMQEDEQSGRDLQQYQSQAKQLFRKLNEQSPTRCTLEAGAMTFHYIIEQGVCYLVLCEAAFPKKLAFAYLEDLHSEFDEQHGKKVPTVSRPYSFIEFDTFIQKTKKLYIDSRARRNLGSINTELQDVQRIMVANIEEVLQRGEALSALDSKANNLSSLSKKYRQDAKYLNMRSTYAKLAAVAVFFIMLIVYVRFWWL

[2] = target: T2, HeLa cell extract proteins (Homo sapiens, UniProt P61081); settings: protein UBE2M; HeLa
T2 construct: endogenous in cells; host or cells: HeLa cell extract
T2 sequence (P61081 1-183): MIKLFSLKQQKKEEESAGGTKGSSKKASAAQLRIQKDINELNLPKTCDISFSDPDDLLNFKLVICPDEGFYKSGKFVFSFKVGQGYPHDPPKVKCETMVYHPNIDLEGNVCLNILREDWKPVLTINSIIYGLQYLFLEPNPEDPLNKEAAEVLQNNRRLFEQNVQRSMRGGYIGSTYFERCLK

[3] = target: T3, HeLa cell extract proteins (Homo sapiens, UniProt P30049)
T3 construct: endogenous in cells; host or cells: HeLa cell extract
T3 sequence (P30049 23-168): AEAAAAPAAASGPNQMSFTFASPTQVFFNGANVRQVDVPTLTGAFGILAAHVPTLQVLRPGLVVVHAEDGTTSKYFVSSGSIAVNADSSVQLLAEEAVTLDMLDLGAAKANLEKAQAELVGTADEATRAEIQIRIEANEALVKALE

[4] = target: T4, HeLa cell extract proteins (Homo sapiens, UniProt P48163)
T4 construct: endogenous in cells; host or cells: HeLa cell extract
T4 sequence (P48163 1-572): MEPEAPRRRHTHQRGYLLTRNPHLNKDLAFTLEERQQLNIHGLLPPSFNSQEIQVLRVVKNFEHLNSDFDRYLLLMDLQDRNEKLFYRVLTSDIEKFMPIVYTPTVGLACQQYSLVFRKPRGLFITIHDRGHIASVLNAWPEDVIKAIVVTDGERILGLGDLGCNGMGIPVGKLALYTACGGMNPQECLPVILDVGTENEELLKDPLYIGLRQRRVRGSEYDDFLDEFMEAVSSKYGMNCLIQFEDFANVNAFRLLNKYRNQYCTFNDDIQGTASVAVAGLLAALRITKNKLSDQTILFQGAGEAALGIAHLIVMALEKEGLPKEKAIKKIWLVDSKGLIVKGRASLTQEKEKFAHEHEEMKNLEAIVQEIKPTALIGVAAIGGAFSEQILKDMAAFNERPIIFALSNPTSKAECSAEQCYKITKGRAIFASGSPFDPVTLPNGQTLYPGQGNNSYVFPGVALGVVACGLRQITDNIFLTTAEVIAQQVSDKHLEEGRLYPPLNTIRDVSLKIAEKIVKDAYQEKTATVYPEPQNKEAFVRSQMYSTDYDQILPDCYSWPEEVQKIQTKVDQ

[5] = target: T5, HeLa cell extract proteins (Homo sapiens, UniProt P53597)
T5 construct: endogenous in cells; host or cells: HeLa cell extract

[6] = target: T6, HeLa cell extract proteins (Homo sapiens, UniProt Q13616)
T6 construct: endogenous in cells; host or cells: HeLa cell extract

[7] = target: T7, HeLa cell extract proteins (Homo sapiens, UniProt Q15393)
T7 construct: endogenous in cells; host or cells: HeLa cell extract

[8] = target: T8, HeLa cell extract proteins (Homo sapiens, UniProt Q8NB46)
T8 construct: endogenous in cells; host or cells: HeLa cell extract
T8 sequence (Q8NB46 1-1076): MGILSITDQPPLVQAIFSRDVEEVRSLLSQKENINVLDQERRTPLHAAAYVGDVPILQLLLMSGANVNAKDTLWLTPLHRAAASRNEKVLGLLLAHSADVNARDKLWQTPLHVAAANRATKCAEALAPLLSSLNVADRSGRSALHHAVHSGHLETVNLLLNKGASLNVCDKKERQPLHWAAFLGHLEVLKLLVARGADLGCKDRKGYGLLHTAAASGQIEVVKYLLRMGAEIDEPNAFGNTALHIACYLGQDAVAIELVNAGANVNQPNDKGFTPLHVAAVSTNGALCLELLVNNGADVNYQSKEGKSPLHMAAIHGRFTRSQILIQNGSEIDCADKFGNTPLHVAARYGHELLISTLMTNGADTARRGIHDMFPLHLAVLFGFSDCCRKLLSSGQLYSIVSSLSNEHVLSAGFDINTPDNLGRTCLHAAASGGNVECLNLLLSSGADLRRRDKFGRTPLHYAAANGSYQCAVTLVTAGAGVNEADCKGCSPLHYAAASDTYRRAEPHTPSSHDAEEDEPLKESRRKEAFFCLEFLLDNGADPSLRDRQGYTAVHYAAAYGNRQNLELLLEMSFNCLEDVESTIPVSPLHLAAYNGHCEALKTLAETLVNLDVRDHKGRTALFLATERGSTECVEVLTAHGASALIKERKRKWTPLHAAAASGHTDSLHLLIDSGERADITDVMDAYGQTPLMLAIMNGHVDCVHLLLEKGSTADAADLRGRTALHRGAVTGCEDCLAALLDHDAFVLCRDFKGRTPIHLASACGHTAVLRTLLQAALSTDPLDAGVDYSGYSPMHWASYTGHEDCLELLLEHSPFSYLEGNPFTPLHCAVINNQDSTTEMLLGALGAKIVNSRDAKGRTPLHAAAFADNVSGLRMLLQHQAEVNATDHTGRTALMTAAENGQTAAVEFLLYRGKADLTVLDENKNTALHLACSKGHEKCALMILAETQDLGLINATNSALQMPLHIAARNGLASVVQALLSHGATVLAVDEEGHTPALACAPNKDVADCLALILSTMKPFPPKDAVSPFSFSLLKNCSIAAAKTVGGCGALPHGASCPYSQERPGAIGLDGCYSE

T5 sequence (P53597 41-346): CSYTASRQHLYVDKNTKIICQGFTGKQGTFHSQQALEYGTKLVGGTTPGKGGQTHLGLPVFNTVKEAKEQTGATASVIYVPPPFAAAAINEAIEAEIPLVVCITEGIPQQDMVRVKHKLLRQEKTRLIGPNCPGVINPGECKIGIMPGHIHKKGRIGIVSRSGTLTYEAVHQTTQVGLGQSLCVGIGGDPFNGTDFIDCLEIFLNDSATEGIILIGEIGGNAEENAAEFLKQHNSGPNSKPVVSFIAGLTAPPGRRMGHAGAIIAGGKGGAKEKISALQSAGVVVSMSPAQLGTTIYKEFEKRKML
T6 sequence (Q13616 whole entry): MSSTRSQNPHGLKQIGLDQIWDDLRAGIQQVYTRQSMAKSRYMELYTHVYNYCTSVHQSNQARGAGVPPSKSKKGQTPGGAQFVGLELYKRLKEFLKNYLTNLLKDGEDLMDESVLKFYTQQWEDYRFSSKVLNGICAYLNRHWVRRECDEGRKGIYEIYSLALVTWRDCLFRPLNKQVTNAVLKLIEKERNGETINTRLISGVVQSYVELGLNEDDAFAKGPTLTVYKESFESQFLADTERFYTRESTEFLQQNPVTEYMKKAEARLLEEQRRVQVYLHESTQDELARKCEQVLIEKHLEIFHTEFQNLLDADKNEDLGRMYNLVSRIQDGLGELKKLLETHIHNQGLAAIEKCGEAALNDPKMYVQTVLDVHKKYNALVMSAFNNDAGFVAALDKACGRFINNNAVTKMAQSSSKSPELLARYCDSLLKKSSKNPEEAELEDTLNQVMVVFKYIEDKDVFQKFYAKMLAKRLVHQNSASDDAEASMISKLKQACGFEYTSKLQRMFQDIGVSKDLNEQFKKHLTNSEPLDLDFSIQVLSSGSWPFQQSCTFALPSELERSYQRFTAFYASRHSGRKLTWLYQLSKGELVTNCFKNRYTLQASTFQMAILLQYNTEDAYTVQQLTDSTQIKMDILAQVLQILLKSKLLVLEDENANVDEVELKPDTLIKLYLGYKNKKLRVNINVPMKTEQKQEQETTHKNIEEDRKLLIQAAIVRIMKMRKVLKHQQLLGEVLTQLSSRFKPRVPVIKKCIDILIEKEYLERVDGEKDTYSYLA
T7 sequence (Q15393 whole entry): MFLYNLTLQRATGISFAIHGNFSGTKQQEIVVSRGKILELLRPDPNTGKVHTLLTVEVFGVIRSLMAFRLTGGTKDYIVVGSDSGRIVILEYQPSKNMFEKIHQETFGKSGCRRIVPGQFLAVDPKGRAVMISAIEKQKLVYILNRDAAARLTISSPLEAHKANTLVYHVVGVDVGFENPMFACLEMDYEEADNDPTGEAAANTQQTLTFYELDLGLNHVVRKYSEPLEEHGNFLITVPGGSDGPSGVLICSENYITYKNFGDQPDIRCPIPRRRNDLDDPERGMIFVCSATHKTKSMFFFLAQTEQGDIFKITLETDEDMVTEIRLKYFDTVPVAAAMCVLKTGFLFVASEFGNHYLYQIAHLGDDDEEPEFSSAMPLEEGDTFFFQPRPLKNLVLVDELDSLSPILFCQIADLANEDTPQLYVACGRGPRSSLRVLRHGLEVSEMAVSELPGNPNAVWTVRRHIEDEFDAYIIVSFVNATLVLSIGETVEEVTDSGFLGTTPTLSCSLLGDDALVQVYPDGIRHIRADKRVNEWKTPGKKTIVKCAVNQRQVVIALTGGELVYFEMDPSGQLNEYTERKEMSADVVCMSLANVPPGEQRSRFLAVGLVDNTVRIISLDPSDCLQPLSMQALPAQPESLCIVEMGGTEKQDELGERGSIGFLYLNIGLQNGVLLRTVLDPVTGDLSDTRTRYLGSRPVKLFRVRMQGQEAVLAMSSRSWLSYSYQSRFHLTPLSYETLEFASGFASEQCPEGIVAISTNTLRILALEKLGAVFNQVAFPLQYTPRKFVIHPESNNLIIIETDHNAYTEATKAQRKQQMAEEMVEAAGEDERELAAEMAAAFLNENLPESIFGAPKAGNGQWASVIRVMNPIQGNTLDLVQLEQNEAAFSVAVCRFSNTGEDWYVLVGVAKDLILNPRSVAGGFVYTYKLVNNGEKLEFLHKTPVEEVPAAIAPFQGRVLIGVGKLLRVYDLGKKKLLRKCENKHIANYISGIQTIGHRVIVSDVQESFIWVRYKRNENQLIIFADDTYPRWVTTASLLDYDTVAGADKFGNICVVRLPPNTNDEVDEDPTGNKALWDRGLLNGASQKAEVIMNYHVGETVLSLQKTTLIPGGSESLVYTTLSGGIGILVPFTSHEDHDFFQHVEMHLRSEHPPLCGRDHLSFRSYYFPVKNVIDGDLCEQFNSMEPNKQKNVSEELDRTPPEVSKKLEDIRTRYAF

| Compound | fold changes relative to vehicle control [1] | fold changes relative to vehicle control [2] | fold changes relative to vehicle control ([3]; protein ATP5D, HeLa) | fold changes relative to vehicle control ([4]; protein ME1, HeLa) | fold changes relative to vehicle control ([5]; protein SUCLG1, HeLa) | fold changes relative to vehicle control ([6]; HeLa, protein CUL1) | fold changes relative to vehicle control ([7]; HeLa, protein SF3B3) | fold changes relative to vehicle control ([8]; HeLa, protein ANKRD52) | further results |
| --- | --- | --- | --- | --- | --- | --- | --- | --- | --- |
| Nc1nc2cccc(-c3ccccc3)c2n1Cc1ccc(Cl)c(Cl)c1 [compound 3] | 0.89 | 0.83 | – | – | – | – | – | – | – |
| CCCCCCOc1ccc(Cc2cnc(N)nc2N)cc1 [compound 1] | 0.96 | 1.2 | – | – | – | – | – | – | – |
| NCCCNc1ccc(C(=O)NC(CCC(=O)O)C(=O)O)cc1 (stereo not drawn) [compound 7] | – | – | 1.2 | 0.86 | 0.81 | 1.02 | 1.19 | 1.03 | – |
| CCCCCCOc1cccc(Cc2cnc(N)nc2N)c1 [compound 2] | 1.41 | 1.71 | – | – | – | – | – | – | – |
| NCCOCCOCC(=O)Nc1nc2ncc(CNc3ccc(C(=O)NC(CCC(=O)O)C(=O)O)cc3)nc2c(=O)[nH]1 (stereo not drawn) [compound 6] | – | – | 1.17 | 1.02 | 1.3 | 1.22 | 1.18 | 1.06 | – |
| Nc1nc2[nH]cc(CCc3ccc(C(=O)N[C@@H](CCC(=O)O)C(=O)O)cc3)c2c(=O)[nH]1 [PTX, pemetrexed] | – | – | – | – | – | – | – | – | fold changes relative to vehicle control [3]: 1.14; fold changes relative to vehicle control [4]: 0.84; fold changes relative to vehicle control [5]: 1.09; fold changes relative to vehicle control [6]: 1.03; fold changes relative to vehicle control [7]: 1.16; fold changes relative to vehicle control [8]: 1.01 |
| Nc1nc2c(c(=O)[nH]1)N(C=O)C(CNc1ccc(C(=O)N[C@@H](CCC(=O)O)C(=O)O)cc1)CN2 (stereo partly drawn) [LEU, leucovorin] | – | – | 0.85 | 0.79 | 0.95 | 0.98 | 1.09 | 0.89 | – |
